Values of other authors, collected in US20030083360A1, “Compaction process for manufacture of sodium phenytoin dosage form” (priority 2001, published 2003).
Like-named read-outs stand apart in the source and are kept apart here.

Row | Structure (SMILES) | solubility in water | solubility in water (listed as free-phenytoin)
1 | O=C1NC(=O)C(c2ccccc2)(c2ccccc2)N1 [phenytoin, 5,5-diphenyl-2,4-imidazolidinedione] | poor solubility in water | practically insoluble in water
2 | O=C1N=C([O-])NC1(c1ccccc1)c1ccccc1.[Na+] [sodium phenytoin] | much more soluble | –
